Experimental data from patent publication US20220160739A1, “METHODS FOR TREATING SUBJECTS WITH CHRONIC KIDNEY DISEASE” (Janssen Pharmaceutica NV, priority 2019, published 2022).

Columns and labels:
[1] = system: patients with type 2 diabetes mellitus (T2DM), Stage 2 or 3 chronic kidney disease (CKD) and macroalbuminuria; assay: Randomized, double-blind, placebo-controlled study of canagliflozin: efficacy (renal and CV endpoints, HbA1c, body weight, blood pressure); assay type: in vivo, human
Description: (§1) This was a randomized, double-blind, event-driven, placebo-controlled, parallel-group, 2-arm, multicenter study to evaluate the effects of canagliflozin relative to placebo on progression to doubling of serum creatinine, end-stage kidney disease (ESKD), renal or cardiovascular (CV) death in patients with type 2 diabetes mellitus (T2DM), Stage 2 or 3 chronic kidney disease (CKD) and macroalbuminuria, who were receiving standard of care including a maximum tolerated labeled daily dose of an angiotensin-converting enzyme inhibitor (ACEi) or angiotensin receptor blocker (ARB). […] The safety objective was to assess the overall safety and tolerability of canagliflozin.
Randomization included a 1:1 ratio to canagliflozin 100 mg or matching placebo, stratified by screening estimated glomerular filtration rate (eGFR) [≥30 to less than 45, ≥45 to less than 60, ≥60 to less than 90 mL/min/1.73 m^2]. The primary efficacy composite endpoint was the time to the first occurrence of doubling of serum creatinine, ESKD, and renal or CV death. The major secondary efficacy endpoints (tested in the following hierarchical order) included: • Composite of CV death and hospitalized heart failure • Composite of CV death, non-fatal MI, and non-fatal stroke (i.e., 3-point “MACE”) • Hospitalized heart failure • Composite of doubling of serum creatinine, ESKD, and renal death • CV death • All-cause death • Composite of CV death, non-fatal MI, non-fatal stroke, hospitalized heart failure, and hospitalized unstable angina
A planned interim analysis was conducted at 413 primary endpoints and the IDMC subsequently recommended to stop the study early for efficacy based on pre-specified stopping criteria.
The primary analysis was performed in the Intent-To-Treat (ITT) analysis set (i.e., all randomized subjects through end of study) using a stratified Cox proportional hazard model including treatment as the explanatory variable and stratified by screening eGFR. Secondary endpoints were similarly analyzed.
As a result of stopping at the interim analysis, the primary endpoint was tested at a two-sided significance level of 0.022 based on the alpha spending function, whereas secondary endpoints were tested at 0.038.
Analyses were performed to assess the impact of adjusting for postbaseline measurements of HbA1c and systolic blood pressure in the primary efficacy analysis. A series of proportional hazard regression models which included postbaseline HbA1c and systolic blood pressure measurements as time-varying covariates were fit. Because changes in HbA1c have a delayed effect on cardiovascular risk, several models were constructed. In each model, HbA1c was evaluated first using the single coincident value, a single lagged value, and then as a running mean average value. Single coincident systolic blood pressure measurements were used for all analyses.

[2] = system: patients with type 2 diabetes mellitus (T2DM), Stage 2 or 3 chronic kidney disease (CKD) and macroalbuminuria; assay: Randomized, double-blind, placebo-controlled study of canagliflozin: safety and tolerability (adverse events); assay type: in vivo
Description: as §1, with “canagliflozin. […]” for “canagliflozin.”
Treatment-emergent safety analyses and summaries were presented using the On-Treatment analysis set (i.e., all treated subjects through 30 days after last dose), whereas analyses of amputation, fracture, and malignancy were performed using the On-Study analysis set (i.e., all treated subjects through end of study).
Safety analyses were performed using either the On-Treatment analysis set (treated subjects up to 30 days of last dose) or the On-Study analysis set (treated subjects through the end of study).

[3] = canagliflozin compared to placebo, ITT
[4] = canagliflozin minus placebo, end of treatment
[5] = Cox proportional hazards model, On-Study
[6] = denominators restricted to females
[7] = renal related AE by preferred term

**Q.** Which results are given for Cc1ccc(C2OC(CO)C(O)C(O)C2O)cc1Cc1ccc(-c2ccc(F)cc2)s1 (stereo not drawn) [Canagliflozin]?
**A.** HbA1c placebo-subtracted difference of LS means for change from baseline ([1]; 30-45 eGFR stratum): 0.03; HbA1c placebo-subtracted difference of LS means for change from baseline ([1]; 45-60 eGFR stratum): −0.18; HbA1c placebo-subtracted difference of LS means for change from baseline ([1]; 60 to <90 eGFR stratum): −0.21; Kaplan-Meier plot, primary composite endpoint: initial separation ([1]; FIG. 1, maintained across the entire study): 52 Week; Treatment HR for the primary efficacy outcome, adjusted for time-varying HbA1c and systolic blood pressure ([1]; HbA1c Concurrent in the Cox model): 0.724; Treatment HR for the primary efficacy outcome, adjusted for time-varying HbA1c and systolic blood pressure ([1]; HbA1c Lagged By 1 Visit): 0.737; Treatment HR for the primary efficacy outcome, adjusted for time-varying HbA1c and systolic blood pressure ([1]; HbA1c Running Mean): 0.740; All-Cause Mortality (%) ([1]; ITT): (7.6) %; All-Cause Mortality EVRT ([1]; ITT): 29.04 per 1000 patient-years; All-Cause Mortality n/N ([1]; ITT): 168/2202; Composite of CV Death/NFMI/NF Stroke/HHF/HUSA (%) ([1]; ITT): (12.4) %; Composite of CV Death/NFMI/NF Stroke/HHF/HUSA EVRT ([1]; ITT): 49.35 per 1000 patient-years; Composite of CV Death/NFMI/NF Stroke/HHF/HUSA n/N ([1]; ITT): 273/2202; Composite of DoSC/ESKD/Renal Death (%) ([1]; ITT): (6.9) %; Composite of DoSC/ESKD/Renal Death EVRT ([1]; ITT): 26.99 per 1000 patient-years; Composite of DoSC/ESKD/Renal Death n/N ([1]; ITT): 153/2202; HHF (%) ([1]; ITT): (4.0) %; HHF (hospitalized heart failure) n/N ([1]; ITT): 89/2202; HHF EVRT ([1]; ITT): 15.65 per 1000 patient-years; MACE (%) ([1]; ITT): (9.9) %; MACE EVRT ([1]; ITT): 38.71 per 1000 patient-years; MACE n/N ([1]; ITT, CV death, non-fatal MI, non-fatal stroke): 217/2202; Composite of CV Death/HHF (%) ([1]; ITT, canagliflozin 100 mg): (8.1) %; Composite of CV Death/HHF EVRT ([1]; ITT, canagliflozin 100 mg): 31.47 per 1000 patient-years; Composite of CV Death/HHF n/N ([1]; ITT, canagliflozin 100 mg): 179/2202; Doubling of Serum Creatinine EVRT ([1]; ITT, canagliflozin 100 mg): 20.73 per 1000 patient-years; ESKD EVRT ([1]; ITT, canagliflozin 100 mg): 20.37 per 1000 patient-years; Primary Composite Endpoint EVRT (event rate) ([1]; ITT, canagliflozin 100 mg): 43.21 per 1000 patient-years; Renal Death EVRT ([1]; ITT, canagliflozin 100 mg): 0.35 per 1000 patient-years; Primary composite endpoint HR, supportive analysis ([1]; On-Treatment analysis set, vs placebo): 0.64; Doubling of Serum Creatinine HR (95% CI) [1, 3]: 0.60 (0.48, 0.76); ESKD HR (95% CI) [1, 3]: 0.68 (0.54, 0.86); Body weight least-squares mean difference, change from baseline [1, 4]: −1.72%; HbA1c least-squares mean difference, change from baseline [1, 4]: −0.13%; Systolic blood pressure least-squares mean difference, change from baseline [1, 4]: −2.81 mmHg; Reduction of risk of the primary composite endpoint ([1]; compared to placebo, ITT): 30%; Reduction of risk of certain primary endpoints ([1]; on top of current standard of care that includes ACEi or ARB therapy): about 25%; Exploratory hard composite of ESKD, renal death and CV death HR ([1]; vs placebo): 0.73; Composite of CV death and hospitalized heart failure HR ([1]; vs placebo, ITT): 0.69; Composite of CV death and hospitalized heart failure risk reduction ([1]; vs placebo, ITT): 31%; Composite of doubling of serum creatinine, ESKD, and renal death HR ([1]; vs placebo, ITT): 0.66; Composite of doubling of serum creatinine, ESKD, and renal death risk reduction ([1]; vs placebo, ITT): 34%; Hospitalization for heart failure HR ([1]; vs placebo, ITT): 0.61; Hospitalization for heart failure risk reduction ([1]; vs placebo, ITT): 39%; MACE HR ([1]; vs placebo, ITT): 0.80; MACE risk reduction ([1]; vs placebo, ITT): 20%; Adjudicated fracture: HR (vs. Placebo) [2, 5]: 0.98; Atraumatic lower limb amputation: HR (vs. Placebo) [2, 5]: 1.11; Final vital status: Alive n (%) ([2]; ITT analysis set, N = 2202): 2030 (92.2); Final vital status: Died n (%) ([2]; ITT analysis set, N = 2202): 168 (7.6); Adjudicated fracture: IRD (minus Placebo) ([2]; On-Study): −0.29 /1000 subject-years; Adjudicated fracture: incidence rate ([2]; On-Study): 11.80 /1000 subject-years; Adjudicated fracture: number of events ([2]; On-Study): 80; Atraumatic lower limb amputation: IRD (minus Placebo) ([2]; On-Study): 1.16 /1000 subject-years; Atraumatic lower limb amputation: incidence rate ([2]; On-Study): 12.34 /1000 subject-years; Atraumatic lower limb amputation: number of events ([2]; On-Study): 87; Adjudicated fracture: subjects with any event (%) ([2]; On-Study, N = 2200): (3.0) %; Atraumatic lower limb amputation: subjects with any event (%) ([2]; On-Study, N = 2200): (3.2) %; Adverse Events Leading to Discontinuation N (%) ([2]; On-Treatment, N = 2200): 267 (12.1); Adverse Events Related to Study Drug N (%) ([2]; On-Treatment, N = 2200): 469 (21.3); Adverse Events Related to Study Drug and Leading to Discontinuation N (%) ([2]; On-Treatment, N = 2200): 75 (3.4); Any Adverse Events N (%) ([2]; On-Treatment, N = 2200): 1784 (81.1); Death (fatal adverse event) N (%) ([2]; On-Treatment, N = 2200): 109 (5.0); Renal related adverse events: total subjects with the AEs (%) ([2]; On-Treatment, N = 2200): (13.2) %; Serious Adverse Events Leading to Discontinuation N (%) ([2]; On-Treatment, N = 2200): 134 (6.1); Serious Adverse Events N (%) ([2]; On-Treatment, N = 2200): 737 (33.5); Serious Adverse Events Related to Study Drug N (%) ([2]; On-Treatment, N = 2200): 62 (2.8); Serious Adverse Events Related to Study Drug and Leading to Discontinuation N (%) ([2]; On-Treatment, N = 2200): 16 (0.7); Renal related adverse events: incidence rate ([2]; Table 8): 57.12 per 1000 person-years; Overall incidence rate of neoplasms ([2]; between the treatment groups): low and balanced between the treatment groups; Adjudicated diabetic ketoacidosis (DKA) IRD ([2]; canagliflozin compared to placebo): 1.73 per 1,000 subject-years; Adjudicated RCC incidence rate ([2]; canagliflozin group): 0.17 per 1000 patient-years; Adjudicated renal cell carcinoma (RCC): subjects ([2]; canagliflozin group): 1 subject; Adjudicated renal cell carcinoma (RCC): subjects (%) ([2]; canagliflozin group): < 0.1%; Adverse event cited as reason for treatment discontinuation ([2]; canagliflozin group): 12%; Female breast cancer incidence rate ([2]; canagliflozin group): 4.08 per 1000 patient-years; Hyperkalemia adverse events incidence rate ([2]; canagliflozin group): 29.74 per 1,000 subject-years; Renal-related adverse events: incidence rate ([2]; canagliflozin group): 57.12 per 1,000 subject-years; Volume depletion adverse events incidence rate ([2]; canagliflozin group): 28.36 per 1,000 subject-years; Malignancy (Breast) IRD, Canagliflozin vs. Placebo [2, 6]: 2.49 /1000 subject years; Malignancy (Breast) n (%) [2, 6]: 8 (1.1); Malignancy (Breast) rate [2, 6]: 4.08 /1000 subject years; Adverse Events Leading to Discontinuation rate ([2]; exposure adjusted): 52.59 /1000 pt-yrs; Adverse Events Related to Study Drug and Leading to Discontinuation rate ([2]; exposure adjusted): 14.77 /1000 pt-yrs; Adverse Events Related to Study Drug rate ([2]; exposure adjusted): 92.38 /1000 pt-yrs; Death (fatal adverse event) rate ([2]; exposure adjusted): 21.47 /1000 pt-yrs; Serious Adverse Events Leading to Discontinuation rate ([2]; exposure adjusted): 26.39 /1000 pt-yrs; Serious Adverse Events Related to Study Drug and Leading to Discontinuation rate ([2]; exposure adjusted): 3.15 /1000 pt-yrs; Serious Adverse Events Related to Study Drug rate ([2]; exposure adjusted): 12.21 /1000 pt-yrs; Serious Adverse Events rate ([2]; exposure adjusted): 145.17 /1000 pt-yrs; Any Adverse Events rate ([2]; exposure adjusted, On-Treatment): 351.40 /1000 pt-yrs; Reports of pheochromocytoma or testicular cell cancer ([2]; in the study): no reports; Malignancy (Bladder) IRD, Canagliflozin vs. Placebo ([2]; post-randomization): 0.16 /1000 subject years; Malignancy (Bladder) rate ([2]; post-randomization): 1.73 /1000 subject years; Malignancy (Bladder) n (%) ([2]; post-randomization, N = 2200): 10 (0.5); Acute kidney injury (%) [2, 7]: (3.9) %; Acute kidney injury n [2, 7]: 86; Anuria (%) [2, 7]: (<0.1) %; Anuria n [2, 7]: 1; Azotemia n [2, 7]: 0; Blood Creatinine increased (%) [2, 7]: (6.5) %; Blood Creatinine increased n [2, 7]: 144; Blood urea increased (%) [2, 7]: (1.0) %; Blood urea increased n [2, 7]: 21; Glomerular filtration rate decreased (%) [2, 7]: (3.1) %; Glomerular filtration rate decreased n [2, 7]: 68; Nephropathy toxic n [2, 7]: 0; Renal failure (%) [2, 7]: (0.5) %; Renal failure n [2, 7]: 10; Renal impairment (%) [2, 7]: (2.3) %; Renal impairment n [2, 7]: 50
